Measurements: ChEMBL document CHEMBL5321250, “Polyketide- and Terpenoid-Derived Metabolites Produced by a Marine-Derived Fungus, Peroneutypa sp” (J Nat Prod, 2023)

Key:
Plasmodium falciparum [1] = assay: Antimalarial activity against CQ/PYR/ATO resistant Plasmodium falciparum TM90C6B assessed as reduction in parasitemia measured after 72 hrs by SYBR Green I dye based fluorescence assay; format: functional, organism-based
[2] = Resistance index, ratio of IC50 for antimalarial activity against CQ/PYR/ATO resistant Plasmodium falciparum TM90C6B to IC50 for antimalarial activity against Plasmodium falciparum 3D7; format: functional
Plasmodium falciparum [3] = assay: Antimalarial activity against CQ/SDX/PYR/MQ/CYC resistant Plasmodium falciparum Dd2 assessed as reduction in parasitemia measured after 72 hrs by SYBR Green I dye based fluorescence assay; format: functional, organism-based; details: Dd2, 72 h
[4] = Resistance index, ratio of IC50 for antimalarial activity against MMV848 resistant Plasmodium falciparum 3D7r_MMV848 to IC50 for antimalarial activity against Plasmodium falciparum 3D7; format: functional
Plasmodium falciparum [5] = assay: Antimalarial activity against MMV848 resistant Plasmodium falciparum 3D7r_MMV848 assessed as reduction in parasitemia measured after 72 hrs by SYBR Green I dye based fluorescence assay; format: functional, organism-based; details: 3D7r_MMV848, 72 h
[6] = Cytotoxicity against human HepG2 cells assessed as inhibition of cell growth incubated for 72 hrs by MTT assay; format: toxicity, cell-based
[7] = Resistance index, ratio of IC50 for antimalarial activity against CQ/SDX/PYR/MQ/CYC resistant Plasmodium falciparum Dd2 to IC50 for antimalarial activity against Plasmodium falciparum 3D7; format: functional
Plasmodium falciparum [8] = assay: Antimalarial activity against Plasmodium falciparum 3D7 assessed as reduction in parasitemia measured after 72 hrs by SYBR Green I dye based fluorescence assay; format: functional, organism-based; details: 3D7, 72 h

## O=c1occ(-c2ccc(O)cc2)c2cc(O)ccc12
Plasmodium falciparum [1]
  IC50: 19 µM
[2]
  Ratio IC50: 1
Plasmodium falciparum [3]
  IC50: 37 µM
[4]
  Ratio IC50: 1.2
Plasmodium falciparum [5]
  IC50: 23 µM
[6]
  IC50 at 72 h: > 100 µM
[7]
  Ratio IC50: 1.9
Plasmodium falciparum [8]
  IC50: 19 µM

## C[C@@H]1CC[C@H]2[C@@H](C)C(=O)O[C@@H]3O[C@@]4(C)CC[C@@H]1[C@]32OO4 [ARTEMISININ]
[2]
  Ratio IC50: 1
Plasmodium falciparum [3]
  IC50: 0.011 µM
[4]
  Ratio IC50: 2
Plasmodium falciparum [5]
  IC50: 0.013 µM
[7]
  Ratio IC50: 2
Plasmodium falciparum [8]
  IC50: 0.006 µM

## CC(C)c1c(C(=O)Nc2ccccc2)c(-c2ccccc2)c(-c2ccc(F)cc2)n1CC[C@@H](O)C[C@@H](O)CC(=O)O [ATORVASTATIN]
Plasmodium falciparum [1]
  IC50: > 1 µM
[2]
  Ratio IC50: > 1430

## CCc1nc(N)nc(N)c1-c1ccc(Cl)cc1 [PYRIMETHAMINE]
Plasmodium falciparum [3]
  IC50: > 10 µM
[7]
  Ratio IC50: > 166
Plasmodium falciparum [8]
  IC50: 0.06 µM
